# According to article PMC9697818, “Design, Synthesis and Biological Assessment of Rhodanine-Linked Benzenesulfonamide Derivatives as Selective and Potent Human Carbonic Anhydrase Inhibitors” (Molecules, 2022):
# Experiments:
# Assay in all cases: stopped-flow CO2 hydration assay
# Assay type in all cases: biochemical
# hCA I = target: T1, hCA I (Homo sapiens, UniProt P00915)
# T1 construct: gene CA1; recombinant, cytosolic isoform
# Outline: (§1)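 Inhibition of recombinant human carbonic anhydrase isozymes was measured by stopped-flow following the enzyme-catalysed CO2 hydration for 5–10 s. Assays used 0.2 mM Phenol Red read at 557 nm, 10 mM Hepes (pH 7.4), 10 mM NaClO4, CO2-saturated water at 25 °C as substrate and 5–12 nM enzyme, with inhibitor preincubated with enzyme for 10 min at room temperature. Inhibitor stocks of 10 mM in DMSO-water 1:1 were diluted down to 0.01 nM in assay buffer, using at least seven concentrations. Inhibition constants (Ki) came from non-linear least-squares fitting with the Cheng–Prusoff equation and are means of at least three determinations.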
# hCA XII = target: T2, hCA XII (Homo sapiens, UniProt O43570)
# T2 construct: gene CA12; recombinant, tumor-associated transmembrane isoform
# Outline: as §1
# hCA II = target: T3, hCA II (Homo sapiens, UniProt P00918)
# T3 construct: gene CA2; recombinant, cytosolic isoform
# Outline: as §1
# hCA IX = target: T4, hCA IX (Homo sapiens, UniProt Q16790)
# T4 construct: gene CA9; recombinant, tumor-associated transmembrane isoform
# Outline: as §1
# T1 sequence (P00915 2-261): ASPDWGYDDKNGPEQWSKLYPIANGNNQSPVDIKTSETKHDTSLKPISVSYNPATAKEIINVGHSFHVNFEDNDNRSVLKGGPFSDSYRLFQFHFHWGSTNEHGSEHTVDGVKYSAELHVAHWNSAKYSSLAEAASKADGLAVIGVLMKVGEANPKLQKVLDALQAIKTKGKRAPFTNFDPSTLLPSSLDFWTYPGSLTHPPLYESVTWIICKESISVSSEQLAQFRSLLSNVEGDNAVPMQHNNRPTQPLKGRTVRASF
# T2 sequence (O43570 30-289 limits assumed): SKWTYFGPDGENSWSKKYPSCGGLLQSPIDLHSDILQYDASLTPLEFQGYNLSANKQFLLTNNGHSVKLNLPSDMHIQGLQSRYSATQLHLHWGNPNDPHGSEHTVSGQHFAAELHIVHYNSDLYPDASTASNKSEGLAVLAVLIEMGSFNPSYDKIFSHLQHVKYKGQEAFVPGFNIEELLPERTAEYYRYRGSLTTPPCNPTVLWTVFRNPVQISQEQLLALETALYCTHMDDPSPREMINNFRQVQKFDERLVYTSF
compound,measurement,setting,value
"NS(=O)(=O)c1ccc(NC(=O)CN2C(=O)/C(=C\c3ccccc3)SC2=S)cc1 [7a, (E)-2-(5-Benzylidene-4-oxo-2-thioxothiazolidin-3-yl)-N-(4-sulfamoylphenyl)-acetamide]",Ki,hCA I,185 nM
same,Ki,hCA XII,32.5 nM
same,Ki,hCA II,69.2 nM
same,Ki,hCA IX,8.7 nM
"NS(=O)(=O)c1ccc(NC(=O)CN2C(=O)/C(=C\c3ccc(Cl)cc3)SC2=S)cc1 [7b, (E)-2-(5-(4-Chlorobenzylidene)-4-oxo-2-thioxothiazolidin-3-yl)-N-(4-sulfamoylphenyl)acetamide]",Ki,hCA I,349 nM
same,Ki,hCA XII,9.1 nM
same,Ki,hCA II,51.6 nM
same,Ki,hCA IX,35.7 nM
"NS(=O)(=O)c1ccc(NC(=O)CN2C(=O)/C(=C\c3ccc(OC(F)(F)F)cc3)SC2=S)cc1 [7c, (E)-2-(4-Oxo-2-thioxo-5-(4-(trifluoromethoxy)benzylidene)thiazolidin-3-yl)-N-(4-sulfamoylphenyl)acetamide]",Ki,hCA I,2410 nM
same,Ki,hCA XII,158 nM
same,Ki,hCA II,954 nM
same,Ki,hCA IX,9.7 nM
"NS(=O)(=O)c1ccc(NC(=O)CN2C(=O)/C(=C\c3ccccc3F)SC2=S)cc1 [7d, (E)-2-(5-(2-Fluorobenzylidene)-4-oxo-2-thioxothiazolidin-3-yl)-N-(4-sulfamoylphenyl)acetamide]",Ki,hCA I,224 nM
same,Ki,hCA XII,65.4 nM
same,Ki,hCA II,140 nM
same,Ki,hCA IX,14.3 nM
"NS(=O)(=O)c1ccc(NC(=O)CN2C(=O)/C(=C\c3ccc(C(F)(F)F)cc3)SC2=S)cc1 [7e, (E)-2-(4-Oxo-2-thioxo-5-(4-(trifluoromethyl)benzylidene)thiazolidin-3-yl)-N-(4-sulfamoylphenyl)acetamide]",Ki,hCA I,854 nM
same,Ki,hCA XII,9.6 nM
same,Ki,hCA II,77.5 nM
same,Ki,hCA IX,8 nM
"C=CCOc1ccc(/C=C2/SC(=S)N(CC(=O)Nc3ccc(S(N)(=O)=O)cc3)C2=O)cc1 [7f, (E)-2-(5-(4-(Allyloxy)benzylidene)-4-oxo-2-thioxothiazolidin-3-yl)-N-(4-sulfamoylphenyl)acetamide]",Ki,hCA I,688 nM
same,Ki,hCA XII,67.6 nM
same,Ki,hCA II,320 nM
same,Ki,hCA IX,5.6 nM
"COc1cc(/C=C2/SC(=S)N(CC(=O)Nc3ccc(S(N)(=O)=O)cc3)C2=O)cc(OC)c1OC [7g, (E)-2-(4-Oxo-2-thioxo-5-(3,4,5-trimethoxybenzylidene)thiazolidin-3-yl)-N-(4-sulfamoylphenyl)acetamide]",Ki,hCA I,173 nM
same,Ki,hCA XII,46 nM
same,Ki,hCA II,31.6 nM
same,Ki,hCA IX,4.2 nM
"CCOc1cc(/C=C2/SC(=S)N(CC(=O)Nc3ccc(S(N)(=O)=O)cc3)C2=O)ccc1O [7h, (E)-2-(5-(3-Ethoxy-4-hydroxybenzylidene)-4-oxo-2-thioxothiazolidin-3-yl)-N-(4-sulfamoylphenyl)acetamide]",Ki,hCA I,22.4 nM
same,Ki,hCA XII,63.7 nM
same,Ki,hCA II,7.3 nM
same,Ki,hCA IX,5.6 nM
"N#Cc1ccc(/C=C2/SC(=S)N(CC(=O)Nc3ccc(S(N)(=O)=O)cc3)C2=O)cc1 [7i, (E)-2-(5-(4-Cyanobenzylidene)-4-oxo-2-thioxothiazolidin-3-yl)-N-(4-sulfamoylphenyl)acetamide]",Ki,hCA I,125 nM
same,Ki,hCA XII,9 nM
same,Ki,hCA II,56.6 nM
same,Ki,hCA IX,7.3 nM
"COc1cccc(/C=C2/SC(=S)N(CC(=O)Nc3ccc(S(N)(=O)=O)cc3)C2=O)c1 [7j, (E)-2-(5-(3-Methoxybenzylidene)-4-oxo-2-thioxothiazolidin-3-yl)-N-(4-sulfamoylphenyl)acetamide]",Ki,hCA I,228 nM
same,Ki,hCA XII,73.6 nM
same,Ki,hCA II,46.1 nM
same,Ki,hCA IX,15.8 nM
"COc1ccc(/C=C2/SC(=S)N(CC(=O)Nc3ccc(S(N)(=O)=O)cc3)C2=O)cc1 [7k, (E)-2-(5-(4-Methoxybenzylidene)-4-oxo-2-thioxothiazolidin-3-yl)-N-(4-sulfamoylphenyl)acetamide]",Ki,hCA I,78.6 nM
same,Ki,hCA XII,58.2 nM
same,Ki,hCA II,12.7 nM
same,Ki,hCA IX,9.3 nM
"CC(C)c1ccc(/C=C2/SC(=S)N(CC(=O)Nc3ccc(S(N)(=O)=O)cc3)C2=O)cc1 [7l, (E)-2-(5-(4-Isopropylbenzylidene)-4-oxo-2-thioxothiazolidin-3-yl)-N-(4-sulfamoylphenyl)acetamide]",Ki,hCA I,430 nM
same,Ki,hCA XII,41.6 nM
same,Ki,hCA II,68.6 nM
same,Ki,hCA IX,51.5 nM
"NS(=O)(=O)c1ccc(NC(=O)CN2C(=O)/C(=C\c3cccc(Oc4ccccc4)c3)SC2=S)cc1 [7m, (E)-2-(4-Oxo-5-(3-phenoxybenzylidene)-2-thioxothiazolidin-3-yl)-N-(4-sulfamoylphenyl)acetamide]",Ki,hCA I,471 nM
same,Ki,hCA XII,47 nM
same,Ki,hCA II,55.5 nM
same,Ki,hCA IX,28.2 nM
"COc1ccc(/C=C2/SC(=S)N(CC(=O)Nc3ccc(S(N)(=O)=O)cc3)C2=O)cc1OC [7n, (E)-2-(5-(3,4-Dimethoxybenzylidene)-4-oxo-2-thioxothiazolidin-3-yl)-N-(4-sulfamoylphenyl)acetamide]",Ki,hCA I,84 nM
same,Ki,hCA XII,38.5 nM
same,Ki,hCA II,15.4 nM
same,Ki,hCA IX,8.1 nM
"COc1cc(OC)c(OC)cc1/C=C1/SC(=S)N(CC(=O)Nc2ccc(S(N)(=O)=O)cc2)C1=O [7o, (E)-2-(4-Oxo-2-thioxo-5-(2,4,5-trimethoxybenzylidene)thiazolidin-3-yl)-N-(4-sulfamoylphenyl)acetamide]",Ki,hCA I,339 nM
same,Ki,hCA XII,9.5 nM
same,Ki,hCA II,176 nM
same,Ki,hCA IX,34.7 nM
"COc1ccc(/C=C2/SC(=S)N(CC(=O)Nc3ccc(S(N)(=O)=O)cc3)C2=O)c(OC)c1 [7p, (E)-2-(5-(2,4-Dimethoxybenzylidene)-4-oxo-2-thioxothiazolidin-3-yl)-N-(4-sulfamoylphenyl)acetamide]",Ki,hCA I,386 nM
same,Ki,hCA XII,9.8 nM
same,Ki,hCA II,8 nM
same,Ki,hCA IX,17.7 nM
"COc1cc(OC)c(/C=C2/SC(=S)N(CC(=O)Nc3ccc(S(N)(=O)=O)cc3)C2=O)c(OC)c1 [7q, (E)-2-(4-Oxo-2-thioxo-5-(2,4,6-trimethoxybenzylidene)thiazolidin-3-yl)-N-(4-sulfamoylphenyl)acetamide]",Ki,hCA I,298 nM
same,Ki,hCA XII,26.3 nM
same,Ki,hCA II,53.1 nM
same,Ki,hCA IX,23.6 nM
"NS(=O)(=O)c1ccc(NC(=O)CN2C(=O)/C(=C\c3ccc(F)c(F)c3)SC2=S)cc1 [7r, (E)-2-(5-(3,4-Difluorobenzylidene)-4-oxo-2-thioxothiazolidin-3-yl)-N-(4-sulfamoylphenyl)acetamide]",Ki,hCA I,213 nM
same,Ki,hCA XII,9.6 nM
same,Ki,hCA II,19.6 nM
same,Ki,hCA IX,13.5 nM
"NS(=O)(=O)c1ccc(NC(=O)CN2C(=O)/C(=C\c3cccc([N+](=O)[O-])c3)SC2=S)cc1 [7s, (E)-2-(5-(3-Nitrobenzylidene)-4-oxo-2-thioxothiazolidin-3-yl)-N-(4-sulfamoylphenyl)acetamide]",Ki,hCA I,77.9 nM
same,Ki,hCA XII,9 nM
same,Ki,hCA II,14.6 nM
same,Ki,hCA IX,8.4 nM
"COc1cc(/C=C2/SC(=S)N(CC(=O)Nc3ccc(S(N)(=O)=O)cc3)C2=O)cc(OC)c1O [7t, (E)-2-(5-(4-Hydroxy-3,5-dimethoxybenzylidene)-4-oxo-2-thioxothiazolidin-3-yl)-N-(4-sulfamoylphenyl)acetamide]",Ki,hCA I,77.5 nM
same,Ki,hCA XII,30.2 nM
same,Ki,hCA II,9.6 nM
same,Ki,hCA IX,7.2 nM
"NS(=O)(=O)c1ccc(NC(=O)CN2C(=O)/C(=C\c3ccc([N+](=O)[O-])cc3)SC2=S)cc1 [7u, (E)-2-(5-(4-Nitrobenzylidene)-4-oxo-2-thioxothiazolidin-3-yl)-N-(4-sulfamoylphenyl)acetamide]",Ki,hCA I,70.6 nM
same,Ki,hCA XII,9.5 nM
same,Ki,hCA II,8.9 nM
same,Ki,hCA IX,7.7 nM
"NS(=O)(=O)c1ccc(NC(=O)CN2C(=O)/C(=C3/C(=O)Nc4ccccc43)SC2=S)cc1 [9a, (Z)-2-(4-Oxo-5-(2-oxoindolin-3-ylidene)-2-thioxothiazolidin-3-yl)-N-(4-sulfamoylphenyl)acetamide]",Ki,hCA I,41.6 nM
same,Ki,hCA XII,56.2 nM
same,Ki,hCA II,4.3 nM
same,Ki,hCA IX,4.7 nM
"Cc1ccc2c(c1)/C(=C1/SC(=S)N(CC(=O)Nc3ccc(S(N)(=O)=O)cc3)C1=O)C(=O)N2 [9b, (Z)-2-(5-(5-Methyl-2-oxoindolin-3-ylidene)-4-oxo-2-thioxothiazolidin-3-yl)-N-(4-sulfamoylphenyl)acetamide]",Ki,hCA I,92.2 nM
same,Ki,hCA XII,40.6 nM
same,Ki,hCA II,5.5 nM
same,Ki,hCA IX,8.9 nM
"NS(=O)(=O)c1ccc(NC(=O)CN2C(=O)/C(=C3/C(=O)Nc4ccc(C(F)(F)F)cc43)SC2=S)cc1 [9c, (Z)-2-(4-Oxo-5-(2-oxo-5-(trifluoromethyl)indolin-3-ylidene)-2-thioxothiazolidin-3-yl)-N-(4-sulfamoylphenyl)acetamide]",Ki,hCA I,319 nM
same,Ki,hCA XII,37.8 nM
same,Ki,hCA II,67.8 nM
same,Ki,hCA IX,13.3 nM
"NS(=O)(=O)c1ccc(NC(=O)CN2C(=O)/C(=C3/C(=O)Nc4ccc(Cl)cc43)SC2=S)cc1 [9d, (Z)-2-(5-(5-Chloro-2-oxoindolin-3-ylidene)-4-oxo-2-thioxothiazolidin-3-yl)-N-(4-sulfamoylphenyl)acetamide]",Ki,hCA I,35.8 nM
same,Ki,hCA XII,26.3 nM
same,Ki,hCA II,5.2 nM
same,Ki,hCA IX,6 nM
